Like-named read-outs stand apart in the source and are kept apart here.
Experiments:
[1] = tested on: souris; test: Actography (locomotor activity, two perpendicular light beams); format: in vivo; conditions: mouse, 500 mg/kg oral
Procedure: La mesure de l'actographie est effectuée chez la souris 45 min. après l'administration du produit. On opère sur des lots de 12 animaux, chacun d'eux étant isolé pendant 10 min. avant la mesure. Le comptage des scores est effectué par coupure de deux faisceaux lumineux perpendiculaires.
Dans le tableau IV ci-après sont rassemblés les résultats obtenus avec divers produits de l'invention administrés à la dose de 500 mg/kg par voie orale. Les résultats sont exprimés en pourcentage de variation des scores obtenus par rapport à des animaux témoins non traités.
On peut constater que les produits se répartissent en deux groupes : • ceux provoquant de l'hypomotilité tels que 40217, 40039, 40271, 40272, 40319; dans le cas où les animaux traités présentent une perte du réflexe de retournement, ce qui traduit l'effet de narcose propre du produit, on a noté PRR; • ceux provoquant de l'hypermotilité, tels que 40142, 40398, 40397, 40404, 40253, 40355, 40209; pour préciser les résultats obtenus, l'étude pour deux produits a été reprise en effet-dose suivant le même protocole. • Les résultats obtenus figurent dans le tableau V ci-après.

[2] = Acute toxicity (mortality over 24 h); conditions: in vivo, po, mouse, observed 24 h
Procedure: Les produits à étudier sont administrés par voie orale aux doses de 500 et 1 000 mg/kg à des lots de souris. On observe les souris pendant 24 h et note la mortalité.
Les résultats exprimés en pourcentage de mortalité figurent dans le tableau XI ci-après.

[3] = tested on: souris; test: Anticonvulsant effect against electroshock seizures; format: in vivo; conditions: 1 h; mouse, electroshock 12.5 V for 0.5 s, 60 min after oral dosing; read-out: Dose efficace médiane de protection des crises toniques (DE 50) Electrochoc
Procedure: (§1) L'effet anticonvulsivant a été déterminé vis-à-vis des crises convulsives provoquées par l'électrochoc ou par la bicuculline.
L'électrochoc (12,5 V pendant 0,5 s) est effectué chez la souris 60 min après l'administration du produit par voie orale.
(§2) En opérant sur divers lots d'animaux avec des doses différentes du produit à étudier, on peut déterminer la dose efficace médiane (DE 50).
(§3) Les résultats sont rassemblés dans le tableau VIII ci-après et montrent les propriétés anticonvulsivan- tes nettes des produits étudiés.

[4] = tested on: acide homovanillique (HVA); test: Effect on central dopaminergic activity (homovanillic acid accumulation in whole brain); format: in vivo, souris; conditions: mouse whole brain, 500 mg/kg p.os
Procedure: L'effet des produits sur l'activité dopaminergique centrale a été étudié par la mesure de l'accumulation de l'acide homovanillique sur une période de 24 h après l'administration des produits chez la souris.
Le taux d'acide homovanillique (HVA) est évalué dans le cerveau entier, les animaux reçoivent une injection de probenecid (200 mg/kg i.p.) 1 h 30 min avant le sacrifice (lot de 10 animaux).

[5] = tested on: souris; test: Anticonvulsant effect against bicuculline-induced tonic seizures; format: in vivo; conditions: 1 h; mouse, bicuculline 1 mg/kg i.v. 60 min after oral dosing; read-out: Dose efficace médiane de protection des crises toniques (DE 50) Bicuculline
Procedure: as §1
La bicuculline est administrée à la souris par voie intraveineuse à raison de 1 mg/kg, 60 min après le produit à étudier donné per os. On note l'effet protecteur obtenu vis-à-vis des crises toniques.
as §2, §3

[6] = tested on: souris; test: Potentiation of pentobarbital narcosis (loss of righting reflex); format: in vivo; conditions: po; mouse, p. os 1 h before pentobarbital 20 mg/kg i.p.; unit not given for DE 50; read-out: dose (p. os) provoquant 50 % d'induction de narcose (DE 50)
Procedure: Les produits à étudier ont été administrés per os chez la souris à la dose de 500 mg/kg, 1 h avant le pentobarbital injecté par voie intrapéritonéale à raison de 20 mg/kg.
On détermine le pourcentage des animaux ayant perdu le réflexe de retournement. Les résultats sont exprimés en pourcentage ou, dans quelques cas, en dose efficace 50 (DE 50) ou dose provoquant la narcose chez 50 % des animaux traités.
Les résultats figurent dans le tableau VI ci-après.

[7] = tested on: GABA (acide amino-4 butyrique); test: Effect on whole-brain GABA level; format: in vivo, souris
Procedure: Le 40039 a été administré 30 min avant le sacrifice chez la souris. Le taux de GABA a été évalué sur le cerveau entier (lots de 6 animaux) (voir tableau IX ci-après).

[8] = tested on: rats; test: Electroencephalographic study (sleep/wake analysis per 24 h); format: in vivo; conditions: rat; for EV / SL / SP / ST: per 24 h
Procedure: Pour mieux comprendre l'activité hypnotique des produits selon l'invention, une étude électroencéphalographique a été effectuée sur l'un deux, à savoir CM 40039.
[…] Après une période d'habituation de 10 jours (période éclairée de 8 h à 20 h et période obscure de 20 h à 8 h), les animaux sont enregistrés pendant 5 jours avec le solvant (gomme arabique à 10 %), puis enregistrés pendant 4 jours pendant lesquels ils reçoivent le produit à 9 h chaque matin. Après cette administration chronique, les animaux sont enregistrés les 5 jours suivants (période de contrôle).
Les animaux sont enregistrés 24 h sur 24. L'étude statistique porte sur des tranches de 24 h. On fait une analyse globale sur les trois rats en cumulant les 15 journées témoins, les 12 journées de traitement, les 15 journées de contrôle. Dans chaque tranche horaire de 24 h, on évalue le temps d'éveil (EV), de sommeil lent (SL), de sommeil paradoxal (SP), de sommeil total (ST), ainsi que le rapport (en %) sommeil paradoxal/sommeil total (SP/ST) (voir tableau VII ci-après).

[9] = post-treatment 'Contrôle' period

SMILES: CCCCN(CCCC)C(=O)CCCNC(=O)CCC [40 039, Butyl-10 dioxo-4,9 diaza-5,10 tétradécane]
- Mesure de l'actographie (p. cent scores/témoins) ([1]; 45 min after dosing, change of scores vs untreated controls, PRR = loss of righting reflex): PRR
- hypomotilité / hypermotilité ([1]; grouping in words): hypomotilité
- mortality at 24 h ([2]; 500 mg/kg p. os, read-out: p. cent de mortalité à 500 mg/kg p. os): 0%
- mortality at 24 h ([2]; 1000 mg/kg p. os, read-out: p. cent de mortalité à 1000 mg/kg p. os): 100%
- ED50 [3]: 250 mg/kg
- Taux de HVA en ([4]; 2 h): 798 ± 34 ng/g
- Taux de HVA en ([4]; 4 h): 894 ± 37 ng/g
- Taux de HVA en ([4]; 6 h): 659 ± 29 ng/g
- Taux de HVA (variation vs 0) ([4]; 6 h, change vs time 0): 0%
- Taux de HVA en ([4]; 24 h): 441 ± 19 ng/g
- Taux de HVA en ([4]; time 0 (baseline)): 658 ± 40 ng/g
- ED50 [5]: 300 mg/kg
- ED50 [6]: 200 mg/kg
- Taux de GABA en µg/g cerveau ([7]; mouse whole brain, 500 mg/kg p. os, 30 min before sacrifice): 321 ± 12 µg/g cerveau
- Taux de GABA p.cent/témoins ([7]; mouse whole brain, 500 mg/kg p. os, change vs controls): 14,6 p.cent
- taux de GABA dans le cerveau total ([7]; mouse, result in words): rapide augmentation
- EV ([8]; 'Contrôle' = 5 days after end of chronic treatment): 40,3 ± 3,6
- SP/ST [8, 9]: 13,5 ± 1,8%
- SL [8, 9]: 51 ± 3
- SP [8, 9]: 8,6 ± 1,7
- ST [8, 9]: 59,6 ± 3,9
- EV ([8]; treatment period (12 days pooled, 3 rats), 325 mg/kg as in table head, wake time): 40,6 ± 3
- SP ([8]; treatment period, paradoxical sleep): 8,1 ± 1,4
- SL ([8]; treatment period, slow-wave sleep): 51,5 ± 2
- ST ([8]; treatment period, total sleep): 59,5 ± 2,6
- SP/ST ([8]; treatment period, ratio paradoxical/total sleep): 13,2 ± 1,9%

— patent EP0046707B1, “Derivatives of 4-aminobutyric acid and the medicines especially active on the central nervous system containing them” (priority 1980, dated 1982)
